Measured values taken from patent US8940913B2, “Herbicides” (Syngenta Crop Protection, LLC, priority 2007, dated 2015).

Tests used:
Format in all cases: in vivo
[1] = test system: Echinochloa crus-galli (ECHCG); experiment: Pre-emergence herbicidal activity, glasshouse pot test; conditions: 480 h, rate 250 g/ha, evaluated 20 days later, 100=total damage to plant, 0=no damage to plant
Method: (§1) Monocotyledonous and dicotyledonous test plants were sown in standard soil in pots. After cultivation for one day (pre-emergence) or after 10 days cultivation (post-emergence) under controlled conditions in a glasshouse, the plants were sprayed with an aqueous spray solution derived from the formulation of the technical active ingredient in 0.6 ml acetone and 45 ml formulation solution containing 10.6% Emulsogen EL (Registry number 61791-12-6), 42.2% N-methylpyrrolidone, 42.2% dipropylene glycol monomethyl ether (Registry number 34590-94-8) and 0.2% X-77 (Registry number 11097-66-8). The test plants were then grown in a greenhouse under optimum conditions until, 15 days later for post-emergence and 20 days for pre-emergence, the test was evaluated (100=total damage to plant; 0=no damage to plant). Test Plants: Alopecurus myosuroides (ALOMY), Avena fatua (AVEFA), Lolium perenne (LOLPE), Setaria faberi (SETFA), Digitaria sanguinalis (DIGSA), Echinochloa crus-galli (ECHCG)

[2] = test system: Setaria faberi (SETFA); experiment: as above; conditions: 480 h, rate 250 g/ha, evaluated 20 days later, 100=total damage to plant, 0=no damage to plant
Method: as §1

[3] = test system: Avena fatua (AVEFA); experiment: as above; conditions: 480 h, rate 250 g/ha, evaluated 20 days later, 100=total damage to plant, 0=no damage to plant
Method: as §1

[4] = test system: Digitaria sanguinalis (DIGSA); experiment: as above; conditions: 480 h, rate 250 g/ha, evaluated 20 days later, 100=total damage to plant, 0=no damage to plant
Method: as §1

[5] = test system: Lolium perenne (LOLPE); experiment: as above; conditions: 480 h, rate 250 g/ha, evaluated 20 days later, 100=total damage to plant, 0=no damage to plant
Method: as §1

[6] = test system: Alopecurus myosuroides (ALOMY); experiment: as above; conditions: 480 h, rate 250 g/ha, evaluated 20 days later, 100=total damage to plant, 0=no damage to plant
Method: as §1

[7] = test system: Echinochloa crus-galli (ECHCG); experiment: Post-emergence herbicidal activity, glasshouse pot test; conditions: 360 h, rate 125 g/ha, evaluated 15 days later, 100=total damage to plant, 0=no damage to plant
Method: as §1

[8] = test system: Setaria faberi (SETFA); experiment: as above; conditions: 360 h, rate 125 g/ha, evaluated 15 days later, 100=total damage to plant, 0=no damage to plant
Method: as §1

[9] = test system: Avena fatua (AVEFA); experiment: as above; conditions: 360 h, rate 125 g/ha, evaluated 15 days later, 100=total damage to plant, 0=no damage to plant
Method: as §1

[10] = test system: Digitaria sanguinalis (DIGSA); experiment: as above; conditions: 360 h, rate 125 g/ha, evaluated 15 days later, 100=total damage to plant, 0=no damage to plant
Method: as §1

[11] = test system: Lolium perenne (LOLPE); experiment: as above; conditions: 360 h, rate 125 g/ha, evaluated 15 days later, 100=total damage to plant, 0=no damage to plant
Method: as §1

[12] = test system: Alopecurus myosuroides (ALOMY); experiment: as above; conditions: 360 h, rate 125 g/ha, evaluated 15 days later, 100=total damage to plant, 0=no damage to plant
Method: as §1

SMILES | pest or weed control at 250 g/ha [1] | pest or weed control at 250 g/ha [2] | pest or weed control at 250 g/ha [3] | pest or weed control at 250 g/ha [4] | pest or weed control at 250 g/ha [5] | pest or weed control at 250 g/ha [6] | pest or weed control at 125 g/ha [7] | pest or weed control at 125 g/ha [8] | pest or weed control at 125 g/ha [9] | pest or weed control at 125 g/ha [10] | pest or weed control at 125 g/ha [11] | pest or weed control at 125 g/ha [12]
CCc1ccc(-c2ccc(Cl)c(C(F)(F)F)c2)cc1C1=C(O)[C@H]2[C@@H](C1=O)[C@@H]1CC[C@H]2O1 [Compound T17] | 90% | 80% | 0% | 90% | 20% | 0% | 100% | 100% | 90% | 100% | 40% | 90%
CC(=O)OC1=C(c2c(C)cc(-c3ccccc3)cc2C)C(=O)[C@@H]2[C@H]1[C@H]1CC[C@@H]2O1 [Compound P3] | 80% | 100% | 60% | 100% | 100% | 100% | 100% | 90% | 80% | 80% | 100% | 100%
CCc1ccc(-c2ccc(Cl)cc2)cc1C1=C(O)[C@H]2[C@@H](C1=O)[C@@H]1CC[C@H]2O1 [Compound T2] | 90% | 80% | 40% | 70% | 50% | 70% | 100% | 100% | 100% | 100% | 80% | 100%
Cc1cc(-c2ccccc2)cc(C)c1C1C(=O)[C@H]2[C@@H]3CC[C@@](C)(O3)[C@H]2C1=O (stereo partly drawn) [Compound T8] | 100% | 100% | 50% | 100% | 80% | 90% | 100% | 100% | 90% | 100% | 70% | 100%
CCc1ccc(-c2ccc(Cl)s2)cc1C1=C(O)[C@H]2[C@@H](C1=O)[C@@H]1CC[C@H]2O1 [Compound T18] | 90% | 90% | 20% | 100% | 80% | 50% | 100% | 100% | 100% | 100% | 70% | 100%
CCc1ccc(-c2ccc(Cl)cc2)cc1C1=C(O)[C@H]2[C@@H](C1=O)[C@]1(C)CC[C@@]2(C)O1 [Compound T3] | 100% | 100% | 80% | 100% | 80% | 70% | 90% | 90% | 90% | 90% | 80% | 100%
CCc1ccc(-c2ccc(Cl)nc2Cl)cc1C1=C(O)[C@H]2[C@@H](C1=O)[C@@H]1CC[C@H]2O1 [Compound T21] | 100% | 100% | 50% | 90% | 60% | 50% | 100% | 90% | 80% | 100% | 40% | 80%
